Laboratory results from BigSolDB 2.1.

CC(C)C(=O)Nc1ccc([N+](=O)[O-])c(C(F)(F)F)c1
solubility (mole fraction)
Settings	278.15 K	283.15 K	288.15 K	293.15 K	298.15 K	303.15 K	308.15 K	313.15 K	318.15 K	323.15 K
in 2-ethoxyethanol	0.132	0.142	0.153	0.164	0.176	0.19	0.204	0.22	0.237	0.258
in 2-methoxyethanol	0.121	0.13	0.142	0.153	0.166	0.18	0.195	0.212	0.229	0.25
in DMF	0.382	0.391	0.401	0.41	0.421	0.433	0.447	0.462	0.476	0.494
in DMSO	–	–	–	0.433	0.443	0.455	0.469	0.481	0.496	0.512
in acetone	0.162	0.173	0.185	0.196	0.209	0.223	0.238	0.255	0.273	0.293
in dichloromethane	0.00732	0.00924	0.0117	0.0143	0.0182	0.0223	0.0273	–	–	–
in ethanol	0.0336	0.0406	0.0503	0.0586	0.0699	0.083	0.0979	0.116	0.135	0.158
in ethyl acetate	0.0998	0.109	0.119	0.131	0.143	0.156	0.17	0.187	0.205	0.225
in ethylene glycol	0.00089	0.00116	0.0015	0.00195	0.00241	0.00308	0.0039	0.00491	0.0061	0.00758
in methanol	0.0296	0.0362	0.0446	0.0532	0.065	0.078	0.0933	0.11	0.131	0.153
in methyl acetate	0.0945	0.103	0.113	0.123	0.135	0.144	0.16	0.175	0.192	0.21
